Experimental data published in patent publication US11208387B2, “Macrocyclic broad spectrum antibiotics” (Genentech, Inc., priority 2019, dated 2021).
≈ marks a conversion by molar mass, not a printed value. Where two headings read alike, the source gives them in different places.

Experiments:
Assay in all cases: Serum MIC, broth micro-dilution
Format in all cases: cell-based
[1] = system: Pseudomonas aeruginosa PA01; settings: Pseudomonas aeruginosa, PA01; 50% v/v mouse serum in Mueller Hinton II cation adjusted Broth, 35° C., 22 hours; Table 4; read-out: P. aeruginosa 01 Serum MIC
How it was run: (§1)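 MIC read after 22 h at 35° C by CLSI broth micro-dilution, with medium containing 50% v/v mouse serum in cation-adjusted Mueller Hinton II broth. Ten 2-fold compound concentrations were tested, starting at 64, 4, 0.5 or 0.13 μg/mL.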

[2] = system: Acinetobacter baumannii ATCC 17978; settings: Acinetobacter baumannii, ATCC17978, 50% v/v mouse serum in Mueller Hinton II cation adjusted Broth, 35° C., 22 hours
How it was run: as §1

[3] = system: Escherichia coli strain ATCC 25922; settings: Escherichia coli, ATCC25922; 50% v/v mouse serum in Mueller Hinton II cation adjusted Broth, 35° C., 22 hours; Table 4; read-out: E. coli 25922 Serum MIC
How it was run: as §1

[4] = system: Klebsiella pneumoniae ATCC 700603; settings: Klebsiella pneumoniae, ATCC700603; 50% v/v mouse serum in Mueller Hinton II cation adjusted Broth, 35° C., 22 hours; Table 4; read-out: K pneumoniae 700603 Serum MIC
How it was run: as §1

[5] = Table 4, read-out: A. baumanii 17978 Serum MIC
[6] = Table 5, read-out: Acinetobacter baumanii 17978 Serum MIC

Row | Compound | MIC [1] | MIC [2, 5] | MIC [2, 6] | MIC [3] | MIC [4]
1 | Cc1nc(-c2cc3c(cc2O)C(C)(C)CC3)nc(N)c1C(=O)N[C@@H](CNS(N)(=O)=O)C(=O)N(C)[C@@H]1C(=O)N[C@@H](C)C(=O)N[C@H](C(=O)O)Cc2ccc(OC[C@H](O)CN)c(c2)-c2cc1cc(OC[C@H](O)CN)c2O [Example 57, (8S,11S,14S)-18-hydroxy-11-methyl-14-[methyl-[(2S)-2-[[4-amino-2-(6-hydroxy-1,1-dimethyl-indan-5-yl)-6-methyl-pyrimidine-5-carbonyl]amino]-3-(sulfamoylamino)-propanoyl]amino]-10,13-dioxo-3,17-bis[(2R)-3-amino-2-hydroxy-propoxy]-9,12-diazatricyclo-[13.3.1.12,6]icosa-1(18),2(20),3,5,15(19), 16-hexaene-8-carboxylic acid] | 8 µM (≈ 8.29 µg/mL) | 16 µM (≈ 16.6 µg/mL) | 16 µM (≈ 16.6 µg/mL) | 0.75 µM (≈ 0.777 µg/mL) | 1 µM (≈ 1.04 µg/mL)
2 | Cc1nc(-c2ccc(C(C)(C)C)cc2CO)nc(N)c1C(=O)N[C@@H](CNS(N)(=O)=O)C(=O)N(C)[C@@H]1C(=O)N[C@@H](C)C(=O)N[C@H](C(=O)O)Cc2ccc(OC[C@H](O)CN)c(c2)-c2cc1cc(OC[C@H](O)CN)c2O [Example 58, (8S,11S,14S)-14-[[(2S)-2-[[4-amino-2-[4-tert-butyl-2-(hydroxymethyl)-phenyl]-6-methyl-pyrimidine-5-carbonyl]amino]-3-(sulfamoylamino)-propanoyl]-methyl-amino]-3,17-bis[(2R)-3-amino-2-hydroxy-propoxy]-18-hydroxy-11-methyl-10,13-dioxo-9,12-diazatricyclo-[13.3.1.12,6]icosa-1(18),2(20),3,5,15(19), 16-hexaene-8-carboxylic acid] | 16 µM (≈ 16.6 µg/mL) | 48 µM (≈ 49.8 µg/mL) | 48 µM (≈ 49.8 µg/mL) | 4 µM (≈ 4.15 µg/mL) | 4 µM (≈ 4.15 µg/mL)
3 | Cc1cc(C(C)(C)C)ccc1-c1nc(C)c(C(=O)N[C@@H](CNS(N)(=O)=O)C(=O)N(C)[C@@H]2C(=O)N[C@@H](C)C(=O)N[C@H](C(=O)O)Cc3ccc(OC[C@H](O)CN)c(c3)-c3cc2cc(OC[C@H](O)CN)c3O)c(N)n1 [Example 59, (8S,11S,14S)-14-[[(2S)-2-[[4-amino-2-(4-tert-butyl-2-methyl-phenyl)-6-methyl-pyrimidine-5-carbonyl]amino]-3-(sulfamoylamino)-propanoyl]-methyl-amino]-3,17-bis[(2R)-3-amino-2-hydroxy-propoxy]-18-hydroxy-11-methyl-10,13-dioxo-9,12-diazatricyclo-[13.3.1.12,6]icosa-1(18),2(20),3,5,15(19), 16-hexaene-8-carboxylic acid] | 4 µM (≈ 4.09 µg/mL) | 16 µM (≈ 16.4 µg/mL) | 16 µM (≈ 16.4 µg/mL) | 1 µM (≈ 1.02 µg/mL) | 1 µM (≈ 1.02 µg/mL)
4 | Cc1nc(-c2ccc(C(C)(C)C)c(F)c2)nc(N)c1C(=O)N[C@@H](CNS(N)(=O)=O)C(=O)N(C)[C@@H]1C(=O)N[C@@H](C)C(=O)N[C@H](C(=O)O)Cc2ccc(OC[C@H](O)CN)c(c2)-c2cc1cc(OC[C@H](O)CN)c2O [Example 60, (8S,11S,14S)-14-[[(2S)-2-[[4-amino-2-(4-tert-butyl-3-fluoro-phenyl)-6-methyl-pyrimidine-5-carbonyl]amino]-3-(sulfamoylamino)-propanoyl]-methyl-amino]-3,17-bis[(2R)-3-amino-2-hydroxy-propoxy]-18-hydroxy-11-methyl-10,13-dioxo-9,12-diazatricyclo-[13.3.1.12,6]icosa-1(18),2(20),3,5,15(19), 16-hexaene-8-carboxylic acid] | 4 µM (≈ 4.1 µg/mL) | 12 µM (≈ 12.3 µg/mL) | 12 µM (≈ 12.3 µg/mL) | 0.5 µM (≈ 0.513 µg/mL) | 0.75 µM (≈ 0.77 µg/mL)
5 | C[C@@H]1NC(=O)[C@@H](N(C)C(=O)[C@H](CNS(N)(=O)=O)NC(=O)c2c(N)cc(-c3ccc(C(C)(C)C)cc3O)nc2Cl)c2cc(OC[C@H](O)CN)c(O)c(c2)-c2cc(ccc2OC[C@H](O)CN)C[C@@H](C(=O)O)NC1=O [Example 61, (8S,11S,14S)-18-hydroxy-11-methyl-14-[methyl-[(2S)-2-[[4-amino-6-(4-tert-butyl-2-hydroxy-phenyl)-2-chloro-pyridine-3-carbonyl]-amino]-3-(sulfamoyl-amino)propanoyl]-amino]-10,13-dioxo-3,17-bis[(2R)-3-amino-2-hydroxy-propoxy]-9,12-diazatricyclo-[13.3.1.12,6]icosa-1(18),2(20),3,5,15(19), 16-hexaene-8-carboxylic acid] | 3 µM (≈ 3.13 µg/mL) | 16 µM (≈ 16.7 µg/mL) | 16 µM (≈ 16.7 µg/mL) | 0.38 µM (≈ 0.397 µg/mL) | 0.5 µM (≈ 0.522 µg/mL)
6 | Cc1nc(-c2ccc(C(C)(C)C)cc2)cc(CN)c1C(=O)N[C@@H](CNS(N)(=O)=O)C(=O)N(C)[C@@H]1C(=O)N[C@@H](C)C(=O)N[C@H](C(=O)O)Cc2ccc(OC[C@H](O)CN)c(c2)-c2cc1cc(OC[C@H](O)CN)c2O [Example 63, (8S,11S,14S)-3,17-bis[(2R)-3-amino-2-hydroxy-propoxy]-14-[[(2S)-2-[[4-(amino-methyl)-6-(4-tert-butylphenyl)-2-methyl-pyridine-3-carbonyl]amino]-3-(sulfamoylamino)-propanoyl]-methyl-amino]-18-hydroxy-11-methyl-10,13-dioxo-9,12-diazatri-cyclo[13.3.1.12,6]icosa-1(18),2(20),3,5,15(19), 16-hexaene-8-carboxylic acid] | 16 µM (≈ 16.3 µg/mL) | 16 µM (≈ 16.3 µg/mL) | 16 µM (≈ 16.3 µg/mL) | 1 µM (≈ 1.02 µg/mL) | 0.5 µM (≈ 0.511 µg/mL)
7 | Cc1nc(-c2ccc(C(C)(C)C)cc2O)cc(CN)c1C(=O)N[C@@H](CNS(N)(=O)=O)C(=O)N(C)[C@@H]1C(=O)N[C@@H](C)C(=O)N[C@H](C(=O)O)Cc2ccc(OC[C@H](O)CN)c(c2)-c2cc1cc(OC[C@H](O)CN)c2O [Example 65, (8S,11S,14S)-3,17-bis[(2R)-3-amino-2-hydroxy-propoxy]-14-[[(2S)-2-[[4-(aminomethyl)-6-(4-tert-butyl-2-hydroxy-phenyl)-2-methyl-pyridine-3-carbonyl]-amino]-3-(sulfamoyl-amino)propanoyl]-methyl-amino]-18-hydroxy-11-methyl-10,13-dioxo-9,12-diazatricyclo-[13.3.1.12,6]icosa-1(19),2(20),3,5,15,17-hexaene-8-carboxylic acid] | 16 µM (≈ 16.6 µg/mL) | 32 µM (≈ 33.2 µg/mL) | 32 µM (≈ 33.2 µg/mL) | 1 µM (≈ 1.04 µg/mL) | 1 µM (≈ 1.04 µg/mL)
8 | Cc1nc(-c2ccc(C(C)(C)C)c(F)c2O)nc(N)c1C(=O)N[C@@H](CNS(N)(=O)=O)C(=O)N(C)[C@@H]1C(=O)N[C@@H](C)C(=O)N[C@H](C(=O)O)Cc2ccc(OC[C@H](O)CN)c(c2)-c2cc1cc(OC[C@H](O)CN)c2O [Example 67, (8S,11S,14S)-18-hydroxy-11-methyl-14-[methyl-[(2S)-2-[[4-amino-2-(4-tert-butyl-3-fluoro-2-hydroxy-phenyl)-6-methyl-pyrimidine-5-carbonyl]amino]-3-(sulfamoylamino)-propanoyl]amino]-10,13-dioxo-3,17-bis[(2R)-3-amino-2-hydroxy-propoxy]-9,12-diazatricyclo-[13.3.1.12,6]icosa-1(18),2(20),3,5,15(19), 16-hexaene-8-carboxylic acid] | 4 µM (≈ 4.17 µg/mL) | 16 µM (≈ 16.7 µg/mL) | 16 µM (≈ 16.7 µg/mL) | 0.5 µM (≈ 0.521 µg/mL) | 1 µM (≈ 1.04 µg/mL)
9 | Cc1c(C#N)c(-c2ccc(C(C)(C)C)cc2)nc(N)c1C(=O)N[C@@H](CNS(N)(=O)=O)C(=O)N(C)[C@@H]1C(=O)N[C@@H](C)C(=O)N[C@H](C(=O)O)Cc2ccc(OC[C@H](O)CN)c(c2)-c2cc1cc(OC[C@H](O)CN)c2O [Example 68, (8S,11S,14S)-14-[[(2S)-2-[[2-amino-6-(4-tert-butylphenyl)-5-cyano-4-methyl-pyridine-3-carbonyl]-amino]-3-(sulfamoyl-amino)propanoyl]-methyl-amino]-3,17-bis[(2R)-3-amino-2-hydroxy-propoxy]-18-hydroxy-11-methyl-10,13-dioxo-9,12-diazatricyclo-[13.3.1.12,6]icosa-1(19),2(20),3,5,15,17-hexaene-8-carboxylic acid] | 6 µM (≈ 6.19 µg/mL) | 16 µM (≈ 16.5 µg/mL) | 16 µM (≈ 16.5 µg/mL) | 1.5 µM (≈ 1.55 µg/mL) | 1 µM (≈ 1.03 µg/mL)
10 | C[C@@H]1NC(=O)[C@@H](N(C)C(=O)[C@H](CNS(N)(=O)=O)NC(=O)c2cnc(-c3ccc(C(C)(C)C)cc3)nc2)c2cc(OC[C@H](O)CN)c(O)c(c2)-c2cc(ccc2OC[C@H](O)CN)C[C@@H](C(=O)O)NC1=O [Example 71, (8S,11S,14S)-3,17-bis[(2R)-3-amino-2-hydroxy-propoxy]-14-[[(2S)-2-[[2-(4-tert-butylphenyl)-pyrimidine-5-carbonyl]amino]-3-(sulfamoylamino)-propanoyl]-methyl-amino]-18-hydroxy-11-methyl-10,13-dioxo-9,12-diazatri-cyclo[13.3.1.12,6]icosa-1(18),2(20),3,5,15(19), 16-hexaene-8-carboxylic acid] | 8 µM (≈ 7.83 µg/mL) | 8 µM (≈ 7.83 µg/mL) | 8 µM (≈ 7.83 µg/mL) | 0.25 µM (≈ 0.245 µg/mL) | 0.5 µM (≈ 0.49 µg/mL)
